In patent US20240368221A1, “IMPATIENS BALSAMINA-DERIVED ANTI-BACTERIAL PEPTIDE AND ANTI-BACTERIAL COMPOSITION CONTAINING SAME” (V&CO CO., LTD., priority 2021, published 2024):
Values after ≈ are worked out from the molar mass of the structure shown. Read-outs that look alike come from different tables or passages of the source. Where a SMILES comes first, the peptide text is derived from it.

Legend:
[1] = tested on: sheep red blood cells (sRBCs); test: Hemolytic activity; assay type: cell-based; details: for Hemolytic Activity (%): 5% sRBC, 30 minutes, room temperature
Experimental: Specifically, hemolytic activity was analyzed using sheep red blood cells (sRBCs). In addition, as comparative groups, Ib-AMP4 and melittin were used. Defibrinated sheep blood (MB cells) was centrifuged (4,000×g, 10 min, 4° C.), washed with PBS three times, and suspended in PBS, thereby preparing an sRBC solution (10% sRBC). 5% sRBC and each peptide were mixed to have a final concentration of 1.25 to 160 μg/mL, allowed to react at room temperature for 30 minutes, and centrifuged to collect a supernatant. The absorbance (A414) of hemoglobin eluted from the red blood cells in the collected supernatant was measured at 414 nm. 0.1% Triton X−100 was used as a positive control, PBS was used as a negative control, and hemolytic activity (% Hemolysis) was calculated based on the following equation: % Hemolysis=[(A414 in peptide solution−A414 in PBS)/(A414 in 0.1% Triton X−100−A414 in PBS)]×100.

[2] = tested on: Cutibacterium acnes KCTC 3314; assay type: cell-based
Experimental: (§1) To examine the antimicrobial and antifungal activity of the six types of peptide derivatives prepared in Example 1, antimicrobial and antifungal activity was analyzed using three types of bacterial strains and two types of fungal strains.
(§2) Specifically, to analyze antimicrobial and antifungal activity, a minimal inhibitory concentration (MIC) was measured. The three types of bacterial strains included Escherichia coli KCCM 41290, Staphylococcus aureus KCTC 1621, and Cutibacterium acnes KCTC 3314, and the two types of fungal strains included Candida albicans KCTC 17712, and Aspergillus niger KCTC 6317. The culture of Escherichia coli and Staphylococcus aureus was performed in Luria-Bertani (LB) medium (BD Difco), and the culture of Cutibacterium acnes was performed in reinforced clostridial medium (RCM, BD Difco). The culture of Candida albicans and Aspergillus niger was performed in potato dextrose (PD) medium (BD Difco). The pre-cultured microorganisms or spores were diluted in a medium to 5×10^3 CFU/mL, and each of the six types of peptide derivatives prepared in Example 1 was added at a predetermined concentration. Afterward, a bacterial strain was cultured at 37° C., a fungal strain was cultured at 25° C. for 18 to 24 hours, and optical densities (OD600) were measured using a microplate reader. Fluorescence values (Ex560 and Em600), instead of optical densities, were measured after adding a resazurin reagent to the Aspergillus niger medium to have a concentration of 100 μM. As a control, Ib-AMP4 was used, and the analysis results were expressed as the average of three repeated experiments.

[3] = tested on: Aspergillus niger KCTC 6317; assay type: cell-based
Experimental: as §1, §2

[4] = tested on: Escherichia coli KCCM 41290; assay type: cell-based
Experimental: as §1, §2

[5] = tested on: Candida albicans KCTC 17712; assay type: cell-based
Experimental: as §1, §2

[6] = tested on: Staphylococcus aureus KCTC 1621; assay type: cell-based
Experimental: as §1, §2

[7] = Cytotoxicity, WST-1 cell viability; assay type: cell-based, murine; details: mouse, L929 cells (murine fibroblast cell line)
Experimental: (§3) Specifically, cytotoxicity was evaluated using a skin cell line, L929 cells (murine fibroblast cell line). In addition, as comparative groups, Ib-AMP4 and the bee venom-derived AMP, melittin, known to be highly cytotoxic, were used. The L929 cells were cultured in RPMI 1640 medium (Gibco), which was supplemented with 10% FBS (Sigma), antibiotic-antimycotic cocktail, penicillin G (100 IU/mL), streptomycin (100 μg/mL), and amphotericin B (250 ng/ml; Gibco), at 37° C. in 5% CO2. The cells were seeded in a 96-well plate at 1×10^4 cell/well, incubated for 18 hours, treated with each peptide at 1.25 to 160 µg/mL, and then incubated for 24 hours. 10 μL of WST-1 reagent was added to 100 μL of the medium and allowed to react at 37° C. for 30 minutes, and then absorbance (A450) was measured at 450 nm using a microplate reader. Instead of the peptides, 0.1% Triton X-100 and PBS were used as positive and negative controls, respectively, and cell viability was calculated based on the following equation: % Cell viability=[(A450 in peptide solution−A450 in PBS)/(A450 in 0.1% Triton X−100-A450 in PBS)]×100. The analysis results were expressed as mean±S.D of three repeated experiments.

[8] = tested on: L929 cells (murine fibroblast cell line); test: Cytotoxicity, WST-1 cell viability; assay type: cell-based
Experimental: as §3

[9] = Escherichia coli, LB medium, 37° C., 18 to 24 hours, OD600
[10] = Cutibacterium acnes, RCM, 37° C., 18 to 24 hours, OD600
[11] = Aspergillus niger, PD medium, 25° C., 18 to 24 hours, resazurin fluorescence
[12] = Candida albicans, PD medium, 25° C., 18 to 24 hours, OD600
[13] = Staphylococcus aureus, LB medium, 37° C., 18 to 24 hours, OD600

## N=C(N)NCCC[C@H](NC(=O)[C@H](CCCNC(=N)N)NC(=O)[C@H](Cc1c[nH]c2ccccc12)NC(=O)[C@H](Cc1ccc(O)cc1)NC(=O)[C@H](CCCNC(=N)N)NC(=O)[C@H](CCCNC(=N)N)NC(=O)[C@H](Cc1c[nH]c2ccccc12)NC(=O)[C@@H]1CCCN1C(=O)CN)C(N)=O [VESCA3] (H-GPWRRYWRR-NH2)
[1]
  hemolytic activity (in words): insignificant cytotoxic and hemolytic activity
[2]; KCTC 3314
  MIC: >100 µg/mL
[3]; KCTC 6317
  MIC: 40 µg/mL (≈ 30 µM)
[4]; KCCM 41290
  MIC: 60 µg/mL (≈ 45.1 µM)
[5]; KCTC 17712
  MIC: 20 µg/mL (≈ 15 µM)
[6]; KCTC 1621
  MIC: 5 µg/mL (≈ 3.75 µM)
[7]
  viability at 24 h, 1.25 µg/mL: 96.7%
  viability at 24 h, 2.5 µg/mL: 104%
  viability at 24 h, 5 µg/mL: 104%
  viability at 24 h, 10 µg/mL: 97.1%
  viability at 24 h, 20 µg/mL: 99.7%
  viability at 24 h, 40 µg/mL: 91.9%
  viability at 24 h, 80 µg/mL: 91.6%
  viability at 24 h, 160 µg/mL: 94.9%
  viability at 24 h, 160 g/mL: ≥ 90%
[8]
  cytotoxic activity (in words): insignificant cytotoxic and hemolytic activity

## N=C(N)NCCC[C@H](NC(=O)[C@H](CCCNC(=N)N)NC(=O)[C@H](CCCCN)NC(=O)[C@H](Cc1c[nH]c2ccccc12)NC(=O)[C@H](CCC(=O)O)NC(=O)[C@@H](N)Cc1ccc(O)cc1)C(=O)N[C@@H](CS)C(=O)N[C@@H](CS)C(=O)N[C@@H](CCCCN)C(N)=O [VESCA-NH4] (H-YEWKRRCCK-NH2; N-terminus assumed)
[2]; KCTC 3314
  MIC: >100 µg/mL
[3]; KCTC 6317
  MIC: >100 µg/mL
[4]; KCCM 41290
  MIC: >100 µg/mL
[5]; KCTC 17712
  MIC: 100 µg/mL (≈ 78.7 µM)
[6]; KCTC 1621
  MIC: >100 µg/mL

## CC[C@H](C)[C@H](NC(=O)[C@H](Cc1ccccc1)NC(=O)[C@H](CCCCN)NC(=O)[C@H](CCSC)NC(=O)[C@H](CCCCN)NC(=O)[C@H](CCCNC(=N)N)NC(=O)[C@H](CCCNC(=N)N)NC(=O)[C@@H](NC(=O)[C@H](Cc1c[nH]c2ccccc12)NC(=O)[C@@H](N)CCC(=O)O)C(C)C)C(=O)N[C@@H](CC(N)=O)C(=O)N[C@@H](CO)C(=O)N[C@@H](CC(C)C)C(=O)N[C@@H](Cc1ccc(O)cc1)C(=O)N[C@@H](CO)C(=O)N[C@@H](Cc1c[nH]c2ccccc12)C(N)=O [VESCA-OH3] (H-EWVRRKMKFINSLYSW-NH2; N-terminus assumed)
[2]; KCTC 3314
  MIC: >100 µg/mL
[3]; KCTC 6317
  MIC: 80 µg/mL (≈ 37.3 µM)
[4]; [9]
  MIC: 40 µg/mL (≈ 18.7 µM)
[5]; KCTC 17712
  MIC: 100 µg/mL (≈ 46.7 µM)
[6]; KCTC 1621
  MIC: 5 µg/mL (≈ 2.33 µM)
[6]; Staphylococcus aureus, text of b72
  antimicrobial activity (MIC): 5 µg/mL

## C[C@H](NC(=O)[C@H](Cc1ccc(O)cc1)NC(=O)[C@H](CCCNC(=N)N)NC(=O)[C@H](CCCNC(=N)N)NC(=O)CNC(=O)[C@@H]1CCCN1C(=O)CN)C(=O)N[C@@H](CCCNC(=N)N)C(=O)N[C@@H](CCCNC(=N)N)C(N)=O [VESCA2] (H-GPGRRYARR-NH2; N-terminus assumed)
[2]; [10]
  MIC: >100 µg/mL
[3]; [11]
  MIC: 80 µg/mL (≈ 73.6 µM)
[4]; [9]
  MIC: >100 µg/mL
[5]; [12]
  MIC: 60 µg/mL (≈ 55.2 µM)
[6]; [13]
  MIC: >100 µg/mL

## CC[C@H](C)[C@H](NC(=O)CN)C(=O)NCC(=O)N[C@@H](C)C(=O)N[C@H](C(=O)N[C@@H](CC(C)C)C(=O)N[C@@H](CCCCN)C(=O)N[C@H](C(=O)N[C@@H](CC(C)C)C(=O)N[C@H](C(=O)N[C@H](C(=O)NCC(=O)N[C@@H](CC(C)C)C(=O)N1CCC[C@H]1C(=O)N[C@@H](C)C(=O)N[C@@H](CC(C)C)C(=O)N[C@H](C(=O)N[C@@H](CO)C(=O)N[C@@H](Cc1c[nH]c2ccccc12)C(=O)N[C@H](C(=O)N[C@@H](CCCCN)C(=O)N[C@@H](CCCNC(=N)N)C(=O)N[C@@H](CCCCN)C(=O)N[C@@H](CCCNC(=N)N)C(=O)N[C@@H](CCC(N)=O)C(=O)N[C@@H](CCC(N)=O)C(N)=O)[C@@H](C)CC)[C@@H](C)CC)[C@@H](C)O)[C@@H](C)O)C(C)C)C(C)C [Melittin]
[1]; peptide 1.25 μg/mL
  Hemolytic Activity (%): 0.98%
[1]; peptide 2.5 μg/mL
  Hemolytic Activity (%): 3.40%
[1]; peptide 5.0 μg/mL
  Hemolytic Activity (%): 14.0%
[1]; peptide 10 μg/mL
  Hemolytic Activity (%): 25.02%
[1]; peptide 20 μg/mL
  Hemolytic Activity (%): 96.10%
[1]; peptide 40 μg/mL
  Hemolytic Activity (%): 99.36%
[7]; L929 cells, peptide 1.25 μg/mL, 24 hours, read-out: Relative cell viability (%)
  viability at 24 h, 1.25 µg/mL: 97.4%
[7]; L929 cells, peptide 2.5 μg/mL, 24 hours, read-out: Relative cell viability (%)
  viability at 24 h, 2.5 µg/mL: 51.1%
[7]; L929 cells, peptide 5.0 μg/mL, 24 hours, read-out: Relative cell viability (%)
  viability at 24 h, 5 µg/mL: 2.1%
[7]; L929 cells, peptide 10 μg/mL, 24 hours, read-out: Relative cell viability (%)
  viability at 24 h, 10 µg/mL: 0.2%
[7]; L929 cells, peptide 20 μg/mL, 24 hours, read-out: Relative cell viability (%)
  viability at 24 h, 20 µg/mL: 0.8%
[7]; L929 cells, peptide 40 μg/mL, 24 hours, read-out: Relative cell viability (%)
  viability at 24 h, 40 µg/mL: 0.3%
[7]; L929 cells, peptide 80 μg/mL, 24 hours, read-out: Relative cell viability (%)
  viability at 24 h, 80 µg/mL: 0.5%
[7]; L929 cells, peptide 160 μg/mL, 24 hours, read-out: Relative cell viability (%)
  viability at 24 h, 160 µg/mL: 0.6%
[8]; L929 cells, peptide 5.0 μg/mL, 24 hours
  Relative cell viability (%): 2.1%

## N=C(N)NCCC[C@H](NC(=O)CNC(=O)[C@H](Cc1c[nH]c2ccccc12)NC(=O)[C@H](CCC(=O)O)NC(=O)[C@@H](N)CC(=O)O)C(=O)N[C@@H](CCCNC(=N)N)C(=O)N[C@@H](CS)C(=O)N[C@@H](CS)C(=O)NCC(N)=O [VESCA-NH2] (H-DEWGRRCCG-NH2; N-terminus assumed)
[2]; KCTC 3314
  MIC: >100 µg/mL
[3]; KCTC 6317
  MIC: >100 µg/mL
[4]; KCCM 41290
  MIC: >100 µg/mL
[5]; KCTC 17712
  MIC: >100 µg/mL
[6]; KCTC 1621
  MIC: >100 µg/mL

## N=C(N)NCCC[C@H](NC(=O)[C@H](CCCNC(=N)N)NC(=O)[C@H](CS)NC(=O)[C@H](Cc1ccc(O)cc1)NC(=O)[C@H](CCCNC(=N)N)NC(=O)[C@H](CCCNC(=N)N)NC(=O)CNC(=O)[C@@H]1CCCN1C(=O)CN)C(N)=O [VESCA1] (H-GPGRRYCRR-NH2; N-terminus assumed)
[2]; [10]
  MIC: >100 µg/mL
[3]; [11]
  MIC: 60 µg/mL (≈ 53.6 µM)
[4]; [9]
  MIC: >100 µg/mL
[5]; [12]
  MIC: 40 µg/mL (≈ 35.7 µM)
[6]; [13]
  MIC: >100 µg/mL
